Results: patent US20080176914A1, “CRYSTAL FORM OF 2-(3-FLUORO-4-HYDROXYPHENYL)-7-VINYL-1,3-BENZOXAZOL-5-OL” (WYETH, priority 2006, published 2008)

Test: Conversion of the crystal form on suspending and stirring in solvent at room temperature
Type: physicochemical
Text: The anhydrate crystal form (Form B) can be converted to other crystal forms under suitable conditions.

- crystal form obtained after suspending and stirring in water (suspended and stirred in water at room temperature for three days): a hydrate crystal form is obtained
SMILES: C=Cc1cc(O)cc2nc(-c3ccc(O)c(F)c3)oc12 [Form B, 2-(3-fluoro-4-hydroxyphenyl)-7-vinyl-1,3-benzoxazol-5-ol]
- crystal form obtained after suspending and stirring in ethanol (suspended and stirred in ethanol at room temperature for three days): another anhydrate crystal form is obtained
- crystal form obtained after suspending and stirring in methanol (suspended and stirred in methanol at room temperature for one day): another anhydrate crystal form is obtained
